According to patent US5070139A, “2,4-disubstituted 1,3-dioxolanes” (J. Uriach & Cia. S.A., priority 1987, dated 1991):
Structures can show the parent of a compound that is named as a salt.

Columns and labels:
[1] = test system: platelet aggregation induced by PAF in rabbit platelets; test: Inhibition of platelet aggregation induced by PAF (Test 1); format: cell-based, male New Zealand albino rabbits; conditions: concentration needed to inhibit platelet aggregation by 50%, PAF 16 nM final, rabbit platelet rich plasma
Method: Test 1: Inhibition of Platelet Aggregation Induced by PAF.
The blood is obtained by cardiac puncture of male New Zealand albino rabbits (between 2 and 2.5 Kg of weight) and coagulation is prevented by adding 1 part of 3.16% sodium citrate dihydrate in 9 parts of blood. The platelet rich plasma (PRP) is prepared by blood centrifugation at 250 xg for 10 min. at 4° C. and it is diluted with platelet poor plasma (PPP) obtained by additional centrifugation at […] for 10 min. The amount of platelets is adjusted to […]. The platelet aggregation induced by PAF (C18, prepared in our laboratory) (16 nM, final) is determined by the Born nephelometric technique (J. Physiol., 1962, 162, 67) using a aggregometer Chronolog 500. The activities of the inhibitors are expressed as IC50, that is to say the concentration of the drug needed to inhibit the platelet aggregation in a 50%.

[2] = test system: hypotension induced by PAF; test: Inhibition of the hypotensive effect induced by PAF in normotense rats (Test 2); format: in vivo, Male Sprague Dawley rats; conditions: i.v., 3 min before PAF (0.5 mg/Kg, i.v.), anesthetized rats
Method: Test 2--Inhibition of the Hypotensive Effect Induced by PAF in normotense Rats.
(§1) Male Sprague Dawley rats, of 180-220 g of weight, anesthetized with sodium pentobarbital (50 mg/Kg, i.p. 1 mL/100 g) have been used. In order to measure the average arterial pressure, a polyethylene catheter is introduced into the carotide artery. The arterial pressure is recorded with the help of a transducer connected with a R611 Beckman polygraph. The tested compounds are administrated through the femoral vein 3 min. Before the injection of PAF (0.5 mg/Kg, i.v.).

[3] = test system: hypotension induced by PAF; test: Reversion of the hypotensive effect induced by PAF in normotense rats (Test 3); format: in vivo, Male Sprague Dawley rats; conditions: Rattus norvegicus, iv, 1 min; i.v., 1 min after the injection of PAF; read-out: ID50, dose required to reduce in a 50% the time of recovery of the basal blood pressure
Method: as §1
Test 3--Reversion of the Hypotensive Effect Induced by PAF in Normotense Rats
The experimental design is similar to that of test 2, except in that the compound to be tested is given by intravenous injection 1 min. After the injection of PAF. In the controls the blood pressure recovers 80% of the basal level 6.2 min. after the injection of PAF. The effect of the tested compounds is expressed as the dose required to reduce in a 50% the time of recovery of the basal blood pressure (ID50).

[4] = Oryctolagus cuniculus, Platelet

SMILES	IC50 [1, 4]	% Inhibition of the hypotension induced by PAF ([2]; compound 5 mg/Kg)	also measured
CCCCCCCCCCCCCCCCCC1OCC(COCCCC[n+]2ccccc2)O1 (racemic) [Compound 1, (±)-cis, trans-1[4-[(2-heptadecyl-1,3-dioxolane-4-yl)methoxy]butyl]piridinium 4-methylbenzenesulphonate]	5.5 µM	24%	
CCCCCCCCCCCCCCCCCC1OCC(COCCCC[n+]2ccsc2)O1 (racemic) [Compound 2, (±)-cis, trans-3-[4-[(2-heptadecyl-1,3-dioxolane-4-yl)methoxy]butyl]thiazolium 4-methylbenzenesulfonate]	6 µM		
CCCCCCCCCCCCCCCCCC1OCC(COCCCC[n+]2ccsc2)O1 (racemic) [Compound 5, (±)-cis, trans-3-[4-[(2-heptadecyl-1,3-dioxolane-4-yl)methoxy]butyl)thiazolium iodide]			IC50 [1]: 5 µM
CCCCCCCCCCCCCCCCCC1OCC(COCCCCCC[n+]2ccccc2)O1 (racemic) [Compound 6, (±)-cis, trans-1-[6-[(2-heptadecyl-1,3-dioxolane-4-yl)methoxy]hexyl]pyridinium 4-methylbenzenesulfonate]	3.3 µM	42%	
CCCCCCCCCCCCCCCCCC1OCC(COCCCCCC[n+]2cscc2C)O1 (racemic) [Compound 7, (±)-cis, trans-3-[6-[(2-heptadecyl-1,3-dioxolane-4-yl)methoxy]hexyl]-4-methylthiazolium 4-methylbenzenesulfonate]	3.1 µM		
CCCCCCCCCCCCCCCCCC1OCC(COCCCCCC[n+]2ccsc2)O1 (racemic) [Compound 8, (±)-cis, trans-3-[6-[(2-heptadecyl-1,3-dioxolane-4-yl)methoxy]hexyl]thiazolium 4-methylbenzenesulfonate]	1.4 µM	88%	% Inhibition of the hypotension induced by PAF ([2]; compound 1.25 mg/Kg): 46%; % Inhibition of the hypotension induced by PAF ([2]; compound 2.5 mg/Kg): 75%; ED50 [3]: 0.3 mg/kg
CCCCCCCCCCCCCCCCCC1OCC(COCCCCCC[N+]2(C)CCOCC2)O1 (racemic) [Compound 9, (±)-cis, trans-4-[6-[(2-heptadecyl-1,3-dioxolane-4-yl)methoxy]hexyl]-4-methylmorpholinium 4-methylbenzenesulfonate]	18 µM		
CCCCCCCCCCCCCCCCCC1OCC(COCCCCCC[N+](C)(C)C)O1 (racemic) [Compound 10, (±)-cis, trans-6-[(2-heptadecyl-1,3-dioxolane-4-yl)methoxy]-N,N,N-trimethyl-1-hexanaminium 4-methylbenzenesulfonate]	5.5 µM		
CCCCCCCCCCCCCCCCCC1OCC(COCCCCCC[n+]2cccc3ccccc32)O1 (racemic) [Compound 11, (±)-cis, trans-1-[6-(2-heptadecyl-1,3-dioxolane-4-yl)methoxy]hexyl]quinolinium 4-methylbenzenesulfonate]	3.9 µM		
CCCCCCCCCCCCCCCCCC1OCC(COCCCCCC[n+]2csc3ccccc32)O1 (racemic) [Compound 12, (±)-cis, trans-3-[6-[(2-heptadecyl-1,3-dioxolane-4-yl)methoxy]hexyl]benzothiazolium4-methylbenzenesulfonate]	16 µM		
CCCCCCCCCCCCCCCCCC1OCC(COCCCCCCCC[n+]2ccccc2)O1 (racemic) [Compound 20, (±)-cis, trans-1-[8-[(2-heptadecyl-1,3-dioxolane-4-yl)methoxy]octyl]pyridinium 4-methylbenzenesulfonate]	14 µM		
CCCCCCCCCCCCCCCCCC1OCC(COCCCCCCCC[n+]2ccsc2)O1 (racemic) [Compound 22, (±)-cis, trans-3-[8-[(2-heptadecyl-1,3-dioxolane-4-yl)methoxy]octyl]thiazolium 4-methylbenzenesulfonate]	5.1 µM		
CCCCCCCCCCCCCCCCCC1OCC(COC(=O)CCCCC[n+]2ccccc2)O1 (racemic) [Compound 24, (±)-cis, trans-1-[6-[(2-heptadecyl-1,3-dioxolane-4-yl)methoxy]-6-oxohexyl]pyridinium 4-methylbenzenesulfonate]	2.6 µM	72%	% Inhibition of the hypotension induced by PAF ([2]; compound 2.5 mg/Kg): 58%
CCCCCCCCCCCCCCCCCC1OCC(COC(=O)CCCCC[n+]2cscc2C)O1 (racemic) [Compound 26, (±)-cis, trans-3-[6-[(2-heptadecyl-1,3-dioxolane-4-yl)methoxy]-6-oxohexyl]-4-methylthiazolium 4-methylbenzenesulfonate]	2.5 µM		
CCCCCCCCCCCCCCCCCC1OCC(COC(=O)CCCCC[n+]2ccsc2)O1 (racemic) [Compound 27, (±)-cis, trans-3-[6-[(2-heptadecyl-1,3-dioxolane-4-yl)methoxy]-6-oxohexyl]thiazolium 4-methylbenzenesulfonate]	1.3 µM	100%	% Inhibition of the hypotension induced by PAF ([2]; compound 0.63 mg/Kg): 28%; % Inhibition of the hypotension induced by PAF ([2]; compound 1.25 mg/Kg): 75%; ED50 [3]: 0.16 mg/kg
CCCCCCCCCCCCCCCCCC1OCC(COC(=O)CCCCC[N+]2(C)CCOCC2)O1 (racemic) [Compound 30, (±)-cis, trans-4-[6-[(2-heptadecyl-1,3-dioxolane-4-yl)methoxy]-6-oxohexyl]-4-methylmorpholinium 4-methylbenzenesulfonate]	21 µM		
CCCCCCCCCCCCCCCCCC1OCC(COC(=O)CCCCC[N+](C)(C)C)O1 (racemic) [Compound 31, (±)-cis, trans-6-[(2-heptadecyl-1,3-dioxolane-4-yl)methoxy]-6-oxo-N,N,N-trimethyl-1-hexanaminium 4-methylbenzenesulfonate]	7.8 µM		
CCCCCCCCCCCCCCCCCC1OCC(COC(=O)CCCCC[n+]2cccc3ccccc32)O1 (racemic) [Compound 32, (±)-cis, trans-1-[6-[(2-heptadecyl-1,3-dioxolane-4-yl)methoxy]-6-oxohexyl]quinolinium 4-methylbenzenesulfonate]	2.5 µM	80%	
CCCCCCCCCCCCCCCCCC1OCC(COP(=O)([O-])OCC[N+](C)(C)C)O1 (racemic) [Compound 47, (±)-cis, trans-2-[[[(2-heptadecyl-1,3-dioxolane-4-yl)methoxy]hydroxyphosphinyl]oxy]-N,N,N-trimethylethanaminium hydroxide, inner salt]	180 µM		
CCCCCCCCCCCCCCCCCC1OCC(COP(=O)([O-])OCC[n+]2ccccc2)O1 (racemic) [Compound 48, (±)-cis, trans-1-[2-[[[(2-heptadecyl-1,3-dioxolane-4yl)methoxy]hydroxyphosphinyl]oxy]ethyl]pyridinium hydroxide, inner salt]	180 µM		
